What was measured:
[1] = Stability of the isolated solid in the air; type: physicochemical; conditions: white solid, turned to red in the air
Description: A mixture of 3-hydroxy-3-(6-hydroxy-1,3-benzodioxol-5-yl)-1-pentyl-1,3-dihydro-2H-pyrrolo[3,2-c]pyridin-2-one (0.15 g, 0.42 mmol), triethylsilane (1.60 mL, 10.0 mmol) and trifluroacetic acid (0.74 mL, 10.0 mmol) was stirred at ambient temperature overnight. The mixture was diluted with ethyl acetate (100 mL), washed with water, dried over anhydrous sodium sulfate and filtered. The filtrate was concentrated in vacuo. The residue was triturated with diethyl ether to give the title compound as a white solid (not stable, turned to red in the air): MS (ES+) m/z 341.4 (M+1).

[2] = biological target: NaV1.8 (SK-N-BE2C neuroblastoma cell line) (Homo sapiens, UniProt Q9Y5Y9); type: cell-based
Sequence of NaV1.8 (SK-N-BE2C neuroblastoma cell line) (Q9Y5Y9 whole entry, looked up): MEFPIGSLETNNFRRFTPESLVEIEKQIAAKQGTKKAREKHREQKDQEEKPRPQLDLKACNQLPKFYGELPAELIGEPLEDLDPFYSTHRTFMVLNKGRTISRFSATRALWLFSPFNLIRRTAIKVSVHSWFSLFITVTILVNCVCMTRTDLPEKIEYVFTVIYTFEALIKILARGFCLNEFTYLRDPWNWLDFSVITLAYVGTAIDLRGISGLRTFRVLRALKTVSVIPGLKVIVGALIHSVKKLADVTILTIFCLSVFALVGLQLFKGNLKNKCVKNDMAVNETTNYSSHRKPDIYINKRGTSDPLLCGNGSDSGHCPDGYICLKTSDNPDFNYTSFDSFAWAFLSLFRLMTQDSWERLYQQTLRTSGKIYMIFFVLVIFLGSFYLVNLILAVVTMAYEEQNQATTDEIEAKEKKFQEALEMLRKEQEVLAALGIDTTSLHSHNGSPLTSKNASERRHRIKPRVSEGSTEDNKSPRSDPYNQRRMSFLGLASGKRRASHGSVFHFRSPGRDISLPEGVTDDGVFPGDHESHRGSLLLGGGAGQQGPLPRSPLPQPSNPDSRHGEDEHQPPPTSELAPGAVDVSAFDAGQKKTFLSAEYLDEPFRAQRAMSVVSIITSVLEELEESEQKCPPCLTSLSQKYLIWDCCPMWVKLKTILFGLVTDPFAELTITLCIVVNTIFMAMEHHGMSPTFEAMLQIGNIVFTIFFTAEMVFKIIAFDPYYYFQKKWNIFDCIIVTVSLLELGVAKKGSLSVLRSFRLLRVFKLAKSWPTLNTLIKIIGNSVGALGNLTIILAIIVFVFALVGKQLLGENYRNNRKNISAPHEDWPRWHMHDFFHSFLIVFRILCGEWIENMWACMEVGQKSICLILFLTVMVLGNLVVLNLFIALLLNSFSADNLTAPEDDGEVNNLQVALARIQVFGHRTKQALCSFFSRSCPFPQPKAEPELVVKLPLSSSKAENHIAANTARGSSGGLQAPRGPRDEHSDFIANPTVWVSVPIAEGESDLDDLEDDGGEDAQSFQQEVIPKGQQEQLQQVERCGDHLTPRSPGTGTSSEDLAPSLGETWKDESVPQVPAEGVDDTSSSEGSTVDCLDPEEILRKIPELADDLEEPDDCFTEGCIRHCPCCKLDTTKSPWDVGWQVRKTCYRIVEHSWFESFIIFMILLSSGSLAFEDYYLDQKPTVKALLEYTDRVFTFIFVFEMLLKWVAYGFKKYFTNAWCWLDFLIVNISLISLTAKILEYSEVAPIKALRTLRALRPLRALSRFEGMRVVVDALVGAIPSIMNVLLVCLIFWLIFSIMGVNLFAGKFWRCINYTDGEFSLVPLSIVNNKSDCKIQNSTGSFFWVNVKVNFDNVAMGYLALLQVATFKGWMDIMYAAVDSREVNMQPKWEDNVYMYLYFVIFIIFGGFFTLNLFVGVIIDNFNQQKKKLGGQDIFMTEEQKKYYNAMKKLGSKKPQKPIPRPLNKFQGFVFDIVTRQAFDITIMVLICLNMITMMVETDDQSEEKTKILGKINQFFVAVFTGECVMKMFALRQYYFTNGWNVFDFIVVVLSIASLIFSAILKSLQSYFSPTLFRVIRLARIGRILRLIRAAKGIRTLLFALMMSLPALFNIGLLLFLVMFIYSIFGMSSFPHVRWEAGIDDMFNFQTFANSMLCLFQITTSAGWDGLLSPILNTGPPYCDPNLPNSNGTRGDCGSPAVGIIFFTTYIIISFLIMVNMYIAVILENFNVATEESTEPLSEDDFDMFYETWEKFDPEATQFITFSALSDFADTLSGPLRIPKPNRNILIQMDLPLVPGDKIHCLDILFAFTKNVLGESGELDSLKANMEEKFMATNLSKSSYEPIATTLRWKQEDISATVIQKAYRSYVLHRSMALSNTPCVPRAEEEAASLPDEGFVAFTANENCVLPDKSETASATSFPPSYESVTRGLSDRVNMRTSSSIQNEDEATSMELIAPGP

[3] = biological target: Nav1.2 (PC12 pheochromocytoma) (Rattus norvegicus, UniProt P04775)
Sequence of Nav1.2 (PC12 pheochromocytoma) (P04775 whole entry, looked up): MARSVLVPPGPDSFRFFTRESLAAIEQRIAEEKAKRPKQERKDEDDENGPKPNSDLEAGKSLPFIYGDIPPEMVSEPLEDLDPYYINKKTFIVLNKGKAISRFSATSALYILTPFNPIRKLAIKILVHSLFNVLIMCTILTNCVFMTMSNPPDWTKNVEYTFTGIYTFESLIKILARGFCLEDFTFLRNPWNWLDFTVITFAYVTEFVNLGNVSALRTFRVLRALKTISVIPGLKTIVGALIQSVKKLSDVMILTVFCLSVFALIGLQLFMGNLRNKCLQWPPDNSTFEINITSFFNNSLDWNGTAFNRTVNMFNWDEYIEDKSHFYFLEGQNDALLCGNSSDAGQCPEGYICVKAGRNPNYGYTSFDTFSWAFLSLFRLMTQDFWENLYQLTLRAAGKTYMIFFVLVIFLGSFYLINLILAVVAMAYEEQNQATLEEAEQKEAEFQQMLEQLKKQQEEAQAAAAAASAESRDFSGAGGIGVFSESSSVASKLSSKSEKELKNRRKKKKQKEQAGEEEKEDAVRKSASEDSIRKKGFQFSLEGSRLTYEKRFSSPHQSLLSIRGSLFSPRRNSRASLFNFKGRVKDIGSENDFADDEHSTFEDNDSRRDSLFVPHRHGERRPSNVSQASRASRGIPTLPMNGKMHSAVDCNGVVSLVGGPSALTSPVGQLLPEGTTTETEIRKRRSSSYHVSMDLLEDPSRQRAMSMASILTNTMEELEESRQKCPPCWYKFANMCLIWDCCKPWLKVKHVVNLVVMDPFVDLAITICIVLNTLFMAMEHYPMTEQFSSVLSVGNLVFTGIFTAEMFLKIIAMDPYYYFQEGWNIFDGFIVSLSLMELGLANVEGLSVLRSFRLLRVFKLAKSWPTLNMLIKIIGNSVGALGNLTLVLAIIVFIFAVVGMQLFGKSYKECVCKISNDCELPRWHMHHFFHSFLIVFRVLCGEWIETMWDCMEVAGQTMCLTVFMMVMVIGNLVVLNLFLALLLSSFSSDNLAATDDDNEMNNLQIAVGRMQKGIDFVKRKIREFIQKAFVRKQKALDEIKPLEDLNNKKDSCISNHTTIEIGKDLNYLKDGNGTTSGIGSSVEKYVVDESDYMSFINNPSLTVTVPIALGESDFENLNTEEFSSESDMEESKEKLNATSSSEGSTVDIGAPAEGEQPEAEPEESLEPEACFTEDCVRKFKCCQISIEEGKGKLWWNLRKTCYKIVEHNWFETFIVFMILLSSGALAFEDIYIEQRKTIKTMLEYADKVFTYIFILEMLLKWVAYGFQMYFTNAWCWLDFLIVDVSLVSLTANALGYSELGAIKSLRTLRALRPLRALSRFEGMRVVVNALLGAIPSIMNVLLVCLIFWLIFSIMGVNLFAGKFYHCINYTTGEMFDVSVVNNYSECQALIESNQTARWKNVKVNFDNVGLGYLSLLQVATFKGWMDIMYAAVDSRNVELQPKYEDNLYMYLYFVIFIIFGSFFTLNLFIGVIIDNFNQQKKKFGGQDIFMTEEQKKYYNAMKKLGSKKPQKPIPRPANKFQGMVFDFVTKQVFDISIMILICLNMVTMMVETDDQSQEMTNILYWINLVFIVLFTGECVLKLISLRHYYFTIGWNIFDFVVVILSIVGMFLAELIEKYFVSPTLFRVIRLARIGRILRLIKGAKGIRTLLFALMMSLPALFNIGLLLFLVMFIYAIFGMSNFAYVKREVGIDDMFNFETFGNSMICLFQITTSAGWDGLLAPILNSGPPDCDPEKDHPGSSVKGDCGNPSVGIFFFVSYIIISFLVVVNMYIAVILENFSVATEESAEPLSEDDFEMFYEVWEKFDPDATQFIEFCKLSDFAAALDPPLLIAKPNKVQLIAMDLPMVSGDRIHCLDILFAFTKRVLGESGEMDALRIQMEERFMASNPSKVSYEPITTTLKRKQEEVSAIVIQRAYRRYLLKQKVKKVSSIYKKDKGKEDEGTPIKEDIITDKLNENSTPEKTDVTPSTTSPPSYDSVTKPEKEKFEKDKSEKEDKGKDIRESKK

[4] = biological target: Nav1.4 (CHO-K1 cells) (Cricetulus griseus, UniProt A0A9J7H6F9); type: cell-based, Chinese Hamster
[5] = tested on: Nav1.4 and 1.5 (L6 rat myoblast cell); type: cell-based

CCCCCN1C(=O)C(O)(c2ccc3c(c2)OCO3)c2cccnc21 (centres unmarked)
melting point: 104 to 105 °C

CCCCCN1C(=O)C(O)(c2cc3c(cc2O)OCO3)c2cnccc21 (centres unmarked)
melting point: 193 to 195 °C

CCCCCN1C(=O)C(c2cc3c(cc2O)OCO3)c2cnccc21 (centres unmarked) [Example 10, 3-(6-hydroxy-1,3-benzodioxol-5-yl)-1-pentyl-1,3-dihydro-2H-pyrrolo[3,2-c]pyridin-2-one]
stability of the solid in the air [1]: not stable

CCCCCN1C(=O)C(c2ccc3c(c2)OCO3)c2cccnc21 (centres unmarked) [Example 17, 3-(1,3-benzodioxol-5-yl)-1-pentyl-1,3-dihydro-2H-pyrrolo[2,3-b]pyridin-2-one]
melting point: 75 to 77 °C

NC1=N[C@H](O)[C@H]2[C@H]3O[C@]4(O)O[C@@H]([C@@H](O)[C@@]2(N1)[C@@H]4O)[C@]3(O)CO [TTX, tetrodotoxin]
block of [^14C] Guanidine influx by TTX [2]: TTX partially blocked influx
block of [^14C] Guanidine influx by TTX [3]: Guanidine influx was completely
block of [^14C] Guanidine influx by TTX [4]: Guanidine influx was completely
block of [^14C] Guanidine influx by TTX [5]: partially blocked by TTX (Nav1.5
